Test results from BigSolDB 2.1.

O=C(O)c1ccc(C(=O)O)cc1
solubility (mole fraction)
Settings	303.2 K	313.2 K	323.2 K	333.2 K	343.2 K	353.2 K	363.2 K
in DMAc	0.016	0.0211	0.0269	0.0331	0.0385	0.0452	0.0524
in NMP	0.0133	0.0155	0.0188	0.0216	0.0256	0.0287	0.0328
